Data as given in patent publication US20230102836A1, “Amoebicidal Compositions for Contact Lens Solutions” (University of the West of Scotland, priority 2019, published 2023).
Several values for one entry are separate records, joined by “and”; a condition that tells them apart may be missing. Equal values may be shown once. Read-outs that look alike come from different tables or passages of the source.

What was measured:
A. castellanii cysts [1] = assay: Cytotoxicity assay on cysts (trypan blue); type: cell-based, Acanthamoeba castellanii ATCC 50370; conditions: Acanthamoeba castellanii
Protocol: Acanthamoeba castellanii ATCC 50370 trophozoites and cysts were cultured in Peptone Glucose (PG) medium and encystment medium (Chagla A H, Griffiths A J (1974) Microbiology: 85(1): 139-145) respectively at 25° C. Cysts were prepared by incubating trophozoites for 8 days in encystment medium and integrity validated with calcofluor (0.25 μg/ml) assay (Gatti S et al (2010) J. Med. Microbiol.; 59: 1324-1330) or sodium dodecyl sulfate (SDS, 0.5% w/v) disintegration assay (Dudley R et al (2005) Acta Trop.; 9: 100-8) and microscopic observation.
The compounds used in this study all contained alkyl-carbon chains: three APCs [dodecyl-PC (APC12), tetradecyl-PC. (APC14) and hexadecyl-PC (APC16)] (Anatrace) and four QACs [docdecyl-TMAB (QAC12), tetradecyl-TMAB (QAC14), hexadecyl-TMAB (QAC16) and octadecyl-TMAB (QAC18)](Sigma). All were prepared to a stock concentration of 1 mg/ml and diluted as required by the experimental protocol in the cytotoxicity assays. A. castellanii trophozoites and cysts (at 10^5 cells/ml) with or without APCs or QACs (concentrations ranging from […] doubly diluted to 0.04 μg/ml to a final volume of 100 μl) in a 96-well plate were incubated at 25° C. for a duration determined by the experimental protocol.
For the combined assay, similar concentrations of QAC18 and APC16 were prepared and 18.75 μg/ml and 37.5 μg/ml of QAC12 added (to a final volume of 100 μl) were added to 10^5 cells/mi in a 96-well plate and later incubated at 25° C. for a duration determined by the experimental protocol. Resazurin (7-Hydroxy-31-phenoxazin-3-one 10-oxide; 5 mg/ml; McBride J et al (2005) J. Clin. Microbiol.; 43: 629-634) and trypan blue (0.4 μg/ml; Mafra C S P et al (2013) Investig. Ophthalmol. Vis. Si.; 54: 6363-6372) were then added to trophozoites and cysts respectively after being exposed to the compounds and the cell viability estimated microscopically and from changes in absorbance (at 595 nm and 570 nm) respectively.
Efficacy was expressed as a percentage of untreated controls for each drug concentration used and the data used to calculate the IC50. Cell density was estimated using the modified Neubaur hemocytometer and expressed as cells/ml.

gDNA from A. castellanii = assay: QAC-DNA interaction assay; type: binding, Acanthamoeba castellanii; conditions: DNA:QAC ratios 1:0, 1:1, 1:10, 1:20; 15 min
Protocol: FIGS. 3A and 3B show the QAC-DNA interaction. The absorbance of genomic DNA (0.6 ng/ml) extracted from A. castellani trophozoites measured at 260 nm with the Nanodrop after incubating for 15 minutes with 0 ng/ml, 0.6 ng/ml, 6 ng/ml or 12 ng/ml of QAC12 (FIG. 3A) or QAC16 (FIG. 3B) to give ratios of 1:0, 1:1, 1:10 and 1:20. DNA absorbance increased and decreased with increased […] and [QAC12] respectively. Data is mean absorbance at 260 nm±SD; n=4 independent experiments performed in triplicates.
Genomic deoxynucleic acids (gDNA) from 10^8 A. castellanii trophozoites (treated with and without QAC) were extracted from cells harvested by centrifugation (850×g, 10 min), lysed with UNSET buffer (8M urea, […] NaCl, 2% SDS, […] ethylenediaminetetraacetic acid (EDTA), […] Tris-HCl, pH 7.5) and the DNA extracted with phenol-chloroform (1:1 v/v). The biphasic suspension with DNA enriched on the […] was centrifuged (12,000×g for 15 min, 4° C.) for clear separation and transferred to a new microcentrifuge tube. The DNA was precipitated with cold ethanol (100%, v/v) and 0.3M sodium acetate, washed twice with 70% (v/v) ethanol (12,000×g for 10 min, 4° C.), air dried and resuspended in distilled water. […]

[2] = tested on: A. castellanii trophozoites; assay: Morphometric analysis of trophozoites; type: cell-based, Acanthamoeba castellanii ATCC 50370
Protocol: Acanthamoeba trophozoites ([…]) incubated without (FIG. 2A), with QAC18 at 37.5 μg/ml for 1 h at 25° C. (FIG. 2B), and 0.5% SDS for 30 min (FIG. 2C). QAC18 reduced trophozoites sizes from 29.02±0.23 (FIG. 2A) to 7.87 f 0.93 (FIG. 2B) which disintegrated after 30 min treatment with SDS (FIG. 2C).
A. castellanii trophozoites incubated with and without QAC for a duration determined by experimental protocol were examined microscopically and their sizes measured using the Open Laboratory (Improvision) calibration graticule. The mean body sizes were determined.

A. castellanii cysts [3] = assay: Extrusion of cytoplasmic constituents (DNA, protein) from cysts; type: cell-based, Acanthamoeba castellanii ATCC 50370
From the text: FIGS. 9A-9B show the extrusion of cytoplasmic constituents of A. castellani cysts to the external milieu after QAC treatment. DNA (FIG. 9A) and Protein (FIG. […] 9A) and at 280 nm (FIG. 9B) respectively. Data is mean absorbance at 260 nm (FIG. 9A) and 280 nm (FIG. 9B)±SD respectively: n=4 independent experiments performed in triplicates.
Protein concentration in cell extract and media of QAC-treated and untreated A. castellanii trophozoites was estimated at 280 nm using the Nanodrop® ND-1000 and expressed as ng/μl protein. DNA concentrations were estimated similarly at 260 nm and expressed as ng/μl.

## CCCCCCCCCCCCCCCCCC[N+](C)(C)C.[Br-] [QAC18, octadecyltrimethyl ammonium bromide]
A. castellanii cysts [1]; Table 2, read-out: IC50 A. castellanii cysts
  IC50: 15 µg/mL and 38 µM
A. castellanii cysts [1]; after 96 h, trypan blue viability assay, read-out: Estimated IC50 against matured cysts
  IC50: 22 ± 0.04 µg/mL
gDNA from A. castellanii
  Change of gDNA absorbance at 260 nm with increasing QAC: progressively increased absorbance
[2]
  Reduction in trophozoite size relative to untreated: 4 fold
[2]; 37.5 μg/ml for 1 h at 25° C. (FIG. 2B)
  Trophozoite size after treatment: 7.87
[2]; QAC18-treated trophozoites (FIG. 2B)
  Trophozoite size after treatment: 7.87±0.93 μm
A. castellanii cysts [3]; after 1 h (FIG. 9A)
  Increase in DNA in the external milieu of cysts: 40%
A. castellanii cysts [3]; after 1 h (FIG. 9B)
  Increase in proteins in the external milieu of cysts: 50%
